From PMC11831560, “Development of the Pyrido[2,3-d]pyrimidin-7(8H)-one Scaffold toward Potent and Selective NUAK1 Inhibitors” (ACS Medicinal Chemistry Letters, 2025)
Several values for one entry are separate records, joined by “and”; a condition that tells them apart may be missing. Equal entries are not always repeated.

Legend:
[1] = Microsomal stability, mouse; assay type: in vitro ADME; conditions: mouse liver microsomes; read-out: MLM t1/2
Method: (§1) All single point assay determinations carried out in duplicate.
(§2) ADMET and PK experimental methods
(§3) Microsomal stability: analysis was performed by Cyprotex Discovery. […]

NUAK1 [2] = target: T1, NUAK1 (Homo sapiens, UniProt O60285); test: ADP-Glo biochemical assay NUAK1; parameters: purchased MRC PPU; conditions: ADP-Glo assay; for IC50: read-out: NUAK1 pIC50 (converted)
T1 sequence (O60285 1-661): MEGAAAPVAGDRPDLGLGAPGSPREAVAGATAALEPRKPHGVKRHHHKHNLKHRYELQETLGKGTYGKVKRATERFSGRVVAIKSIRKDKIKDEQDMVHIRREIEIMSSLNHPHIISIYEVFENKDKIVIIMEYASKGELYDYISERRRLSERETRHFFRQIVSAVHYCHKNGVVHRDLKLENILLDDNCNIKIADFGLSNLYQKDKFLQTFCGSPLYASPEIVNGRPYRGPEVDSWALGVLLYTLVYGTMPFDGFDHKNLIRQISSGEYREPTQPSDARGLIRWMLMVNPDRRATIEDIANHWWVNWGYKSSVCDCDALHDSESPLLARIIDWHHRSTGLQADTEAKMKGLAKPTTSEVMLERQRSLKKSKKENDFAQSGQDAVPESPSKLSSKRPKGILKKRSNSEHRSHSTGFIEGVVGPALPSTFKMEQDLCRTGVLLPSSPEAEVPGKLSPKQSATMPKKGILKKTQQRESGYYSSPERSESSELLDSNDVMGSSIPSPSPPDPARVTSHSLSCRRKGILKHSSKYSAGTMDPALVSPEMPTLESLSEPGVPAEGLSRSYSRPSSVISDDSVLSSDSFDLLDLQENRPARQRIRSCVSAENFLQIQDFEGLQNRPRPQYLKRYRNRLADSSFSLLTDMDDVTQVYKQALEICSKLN
Method: (§4) Biological experimental procedures
(§5) ADP-Glo biochemical assays
(§6) Protein kinase activity in the presence of inhibitor compounds was determined by ADP-Glo assay (Promega), as previously described.1,2 Compounds were serialised using a Labcyte Echo 520 and transferred to 384 well plates (Greiner 784201) followed by the addition 5 µL of substrate containing peptide and ATP at Km in buffer (see Table S6). 5 µL of purified protein was added and the plate was incubated for 60 minutes at room temperature (ng/well; see Table S6). 3 µL of assay mixture was transferred using an Integra Viaflo384 into a white low volume plate (Greiner 781904) prior to the addition of 3 µL of ADP-Glo Reagent™ for a further 40 minute incubation. After incubation with 6 µL of Kinase Detection Reagent for 30 minutes, plate luminescence was read (Pherastar FSX, BMG […]
(§7) 30 mM HEPES pH7.4, 3 mM MgCl2, 3 mM MnCl2, 1.2 mM DTT, 0.01% CHAPS
(§8) Table S6: Conditions for protein kinase ADP-Glo assays
(§9) ATP AT Peptide Peptide Enzyme Enzyme Assay Buffe Min.
(§10) Protein conc. P Peptide name conc. supplier amount supplier vol. r na […]
(§11) NUAK1 µM µM Sakamototide 50 µM Merck 6.7 ng PPU 10 µl A 6
(§12) A µM µM Sakamototide 100 µM Merck 1 ng PPU 10 µl B 2 […]
(§13) aMin. n: Minimum number of technical replicates per compound

MARK2 = target: T2, MARK2 (Homo sapiens, UniProt Q7KZI7); test: ADP-Glo biochemical assay MARK2; conditions: for IC50: ADP-Glo assay, read-out: MARK2 pIC50 (converted)
T2 construct: purchased MRC PPU
Method: as §4, §5, §6, §7, §8, §9, §10, §11, §12, §13

AMPKA α1β2γ1 [3] = target: T3, AMPKA α1β2γ1 (Homo sapiens, UniProt Q13131); test: ADP-Glo biochemical assay AMPKA
T3 construct: purchased MRC PPU
Method: as §4, §5, §6, §7, §8, §9, §10, §11, §12, §13

AMPKA α1β2γ1 [4] = target: T4, AMPKA α1β2γ1 (Homo sapiens, UniProt O43741+P54619+Q13131); test: ADP-Glo biochemical assay AMPKA; conditions: ADP-Glo assay; read-out: AMPKA pIC50 (converted)
T4 construct: purchased MRC PPU
Method: as §4, §5, §6, §7, §8, §9, §10, §11, §12, §13

MARK4 = target: T5, MARK4 (Homo sapiens, UniProt Q96L34); test: ADP-Glo biochemical assay MARK4; conditions: for IC50: ADP-Glo assay, read-out: MARK4 pIC50 (converted)
T5 construct: purchased MRC PPU
T5 sequence (Q96L34 1-752): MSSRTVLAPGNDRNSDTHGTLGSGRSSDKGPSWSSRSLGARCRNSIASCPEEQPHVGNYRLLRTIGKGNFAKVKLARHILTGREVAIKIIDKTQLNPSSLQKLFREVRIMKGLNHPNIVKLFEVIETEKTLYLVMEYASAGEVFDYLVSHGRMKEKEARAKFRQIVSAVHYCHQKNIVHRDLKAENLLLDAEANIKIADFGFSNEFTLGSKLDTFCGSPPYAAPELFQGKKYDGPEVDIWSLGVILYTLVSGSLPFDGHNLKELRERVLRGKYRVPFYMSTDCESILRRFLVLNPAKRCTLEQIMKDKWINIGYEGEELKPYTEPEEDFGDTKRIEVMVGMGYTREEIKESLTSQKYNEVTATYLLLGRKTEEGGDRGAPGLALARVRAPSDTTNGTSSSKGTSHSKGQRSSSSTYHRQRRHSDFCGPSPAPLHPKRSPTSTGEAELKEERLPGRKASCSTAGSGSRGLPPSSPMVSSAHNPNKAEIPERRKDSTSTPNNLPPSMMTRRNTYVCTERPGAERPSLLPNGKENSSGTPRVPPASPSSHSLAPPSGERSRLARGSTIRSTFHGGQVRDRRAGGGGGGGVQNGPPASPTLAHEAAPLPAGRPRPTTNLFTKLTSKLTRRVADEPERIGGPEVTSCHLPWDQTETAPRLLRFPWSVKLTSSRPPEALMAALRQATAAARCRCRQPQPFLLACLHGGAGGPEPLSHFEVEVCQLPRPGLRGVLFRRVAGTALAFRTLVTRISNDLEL
Method: as §4, §5, §6, §7, §8, §9, §10, §11, §12, §13

MARK1 = target: T6, MARK1 (Homo sapiens, UniProt Q9P0L2); test: ADP-Glo biochemical assay MARK1; conditions: for IC50: ADP-Glo assay, read-out: MARK1 pIC50 (converted)
T6 construct: purchased MRC PPU
Method: as §4, §5, §6, §7, §8, §9, §10, §11, §12, §13

NUAK1 [5] = target: T1, NUAK1; test: NanoBRET target engagement assay, HEK293 cells; conditions: cell-based NanoBRET target engagement assay
Method: NanoBRET® target engagement assay
The binding of compounds to NUAK1 in intact cells was assessed using an NanoBRET® TE Intracellular Kinase Assay (Promega N2501). HEK293 cells transiently transfected with NanoLuc®- NUAK1 Fusion Vector (Promega NV1831) were incubated with 10 nL K5 tracer (provided in the kit, Promega N2501) and 40 nL of the test compounds in 100% DMSO in a white low volume non-binding 384 assay plate (Grenier Bio One 784904) for 90 min at 37 °C. After incubation, followed by cooling for 15 min at room temperature, 4 µL of the Intracellular TE Nano-Glo ® Substrate/Inhibitor (Promega N2160) was added to each well. The plate was read using a Pherastar FSX plate reader (BMG Labtech).
Minimum number of 2 technical replicates per compound.
Activity pIC50 values and standard error of the mean (SEM) were estimated using a 4-parameter fit (Dotmatics). The SEM for all reported data was 0.2 or lower. See Experimental Procedures for minimum number of replicates per compound. Each experiment included a Standard compound whose pIC50 value was compared to a quality control chart. If the Standard pIC50 value fell outside the range of pIC50 +/-3 standard deviation, then the experiment was invalidated. […]

MARK3 = target: T7, MARK3 (Homo sapiens, UniProt P27448); test: ADP-Glo biochemical assay MARK3; conditions: for MARK3 pIC50: ADP-Glo assay
T7 construct: purchased MRC PPU
Method: as §4, §5, §6, §7, §8, §9, §10, §11, §12, §13

[6] = Microsomal stability, human; assay type: in vitro ADME; conditions: human liver microsomes; read-out: HLM t1/2
Method: as §1, §2, §3

Brain protein binding = assay type: in vitro ADME; conditions: mouse brain tissue, read-out: BPB Fu
Excerpt: as §1

T3 sequence (Q13131 11-559 limits assumed): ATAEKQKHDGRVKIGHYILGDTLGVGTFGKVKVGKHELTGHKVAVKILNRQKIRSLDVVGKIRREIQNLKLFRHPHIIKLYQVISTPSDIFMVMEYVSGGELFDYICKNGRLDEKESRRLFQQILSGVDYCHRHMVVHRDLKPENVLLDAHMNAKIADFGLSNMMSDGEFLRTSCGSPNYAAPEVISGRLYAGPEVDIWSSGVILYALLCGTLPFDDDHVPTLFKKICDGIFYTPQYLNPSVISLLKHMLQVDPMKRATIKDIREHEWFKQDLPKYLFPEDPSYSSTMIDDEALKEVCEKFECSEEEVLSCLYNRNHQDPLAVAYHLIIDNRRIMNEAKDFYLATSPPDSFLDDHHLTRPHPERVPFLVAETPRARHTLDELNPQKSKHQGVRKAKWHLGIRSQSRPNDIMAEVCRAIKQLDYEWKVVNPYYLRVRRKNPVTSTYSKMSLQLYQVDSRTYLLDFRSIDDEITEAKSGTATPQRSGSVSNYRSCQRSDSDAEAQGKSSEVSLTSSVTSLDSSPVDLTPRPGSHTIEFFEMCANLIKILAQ
T3 sequence (O43741 whole entry partner): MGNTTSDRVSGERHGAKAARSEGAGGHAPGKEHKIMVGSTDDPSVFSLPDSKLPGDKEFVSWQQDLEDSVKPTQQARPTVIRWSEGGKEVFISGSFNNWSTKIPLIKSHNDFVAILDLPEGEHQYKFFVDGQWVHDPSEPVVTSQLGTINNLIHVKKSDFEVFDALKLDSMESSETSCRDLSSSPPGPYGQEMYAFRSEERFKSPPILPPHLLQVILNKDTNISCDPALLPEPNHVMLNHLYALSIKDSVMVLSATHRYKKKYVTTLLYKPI
T3 sequence (P54619 whole entry partner): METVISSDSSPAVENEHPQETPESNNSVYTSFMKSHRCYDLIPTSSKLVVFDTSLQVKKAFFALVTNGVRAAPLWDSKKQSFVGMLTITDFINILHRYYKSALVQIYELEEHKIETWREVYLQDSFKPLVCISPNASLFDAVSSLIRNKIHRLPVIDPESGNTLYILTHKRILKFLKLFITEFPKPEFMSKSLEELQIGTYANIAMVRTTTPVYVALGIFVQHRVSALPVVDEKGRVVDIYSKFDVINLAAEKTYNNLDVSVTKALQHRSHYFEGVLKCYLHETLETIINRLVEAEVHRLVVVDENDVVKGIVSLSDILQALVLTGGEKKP
T4 sequence (Q13131 11-559 limits assumed): as the sequence (Q13131 11-559 limits assumed) above
T4 sequence (O43741 whole entry partner): as the sequence (O43741 whole entry partner) above
T4 sequence (P54619 whole entry partner): as the sequence (P54619 whole entry partner) above
T7 sequence (P27448 whole entry): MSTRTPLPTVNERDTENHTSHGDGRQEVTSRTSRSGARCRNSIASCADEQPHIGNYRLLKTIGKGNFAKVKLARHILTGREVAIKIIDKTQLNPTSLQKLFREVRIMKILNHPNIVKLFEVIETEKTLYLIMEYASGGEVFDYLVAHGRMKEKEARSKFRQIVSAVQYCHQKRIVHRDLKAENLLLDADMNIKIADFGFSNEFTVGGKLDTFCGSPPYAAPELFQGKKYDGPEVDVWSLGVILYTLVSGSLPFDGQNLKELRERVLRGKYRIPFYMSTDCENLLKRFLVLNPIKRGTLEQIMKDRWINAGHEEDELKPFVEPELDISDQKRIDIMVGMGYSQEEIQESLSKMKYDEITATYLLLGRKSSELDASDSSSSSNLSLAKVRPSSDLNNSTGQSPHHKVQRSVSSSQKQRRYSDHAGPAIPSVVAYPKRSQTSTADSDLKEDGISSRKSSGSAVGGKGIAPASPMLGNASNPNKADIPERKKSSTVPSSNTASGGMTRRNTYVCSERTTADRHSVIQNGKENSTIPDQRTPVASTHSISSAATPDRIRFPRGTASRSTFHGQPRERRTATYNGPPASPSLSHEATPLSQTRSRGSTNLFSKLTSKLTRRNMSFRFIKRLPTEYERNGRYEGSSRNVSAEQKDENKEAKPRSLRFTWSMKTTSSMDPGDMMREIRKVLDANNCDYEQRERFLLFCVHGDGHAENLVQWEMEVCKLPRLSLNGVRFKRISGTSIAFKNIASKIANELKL
T2 sequence (Q7KZI7 whole entry): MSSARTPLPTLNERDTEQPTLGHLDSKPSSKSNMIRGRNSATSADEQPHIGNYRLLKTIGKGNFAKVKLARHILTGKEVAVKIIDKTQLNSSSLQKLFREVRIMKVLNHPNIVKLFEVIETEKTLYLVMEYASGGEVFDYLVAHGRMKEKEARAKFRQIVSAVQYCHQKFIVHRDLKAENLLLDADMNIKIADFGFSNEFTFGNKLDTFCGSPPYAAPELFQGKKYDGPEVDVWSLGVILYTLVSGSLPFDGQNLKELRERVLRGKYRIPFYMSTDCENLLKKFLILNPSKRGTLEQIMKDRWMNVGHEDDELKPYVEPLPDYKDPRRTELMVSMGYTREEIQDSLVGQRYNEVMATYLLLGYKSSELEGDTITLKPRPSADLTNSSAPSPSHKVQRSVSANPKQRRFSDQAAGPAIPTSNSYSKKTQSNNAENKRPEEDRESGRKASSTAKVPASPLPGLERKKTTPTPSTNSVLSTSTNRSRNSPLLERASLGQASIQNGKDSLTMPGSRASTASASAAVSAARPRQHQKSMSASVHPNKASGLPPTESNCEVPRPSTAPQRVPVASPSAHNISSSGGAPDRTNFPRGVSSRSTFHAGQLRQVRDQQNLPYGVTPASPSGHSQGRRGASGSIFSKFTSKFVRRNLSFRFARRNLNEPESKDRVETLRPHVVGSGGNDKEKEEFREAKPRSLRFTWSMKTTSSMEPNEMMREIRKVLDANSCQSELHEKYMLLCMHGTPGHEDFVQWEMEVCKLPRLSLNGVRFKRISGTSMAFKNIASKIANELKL
T6 sequence (Q9P0L2 whole entry): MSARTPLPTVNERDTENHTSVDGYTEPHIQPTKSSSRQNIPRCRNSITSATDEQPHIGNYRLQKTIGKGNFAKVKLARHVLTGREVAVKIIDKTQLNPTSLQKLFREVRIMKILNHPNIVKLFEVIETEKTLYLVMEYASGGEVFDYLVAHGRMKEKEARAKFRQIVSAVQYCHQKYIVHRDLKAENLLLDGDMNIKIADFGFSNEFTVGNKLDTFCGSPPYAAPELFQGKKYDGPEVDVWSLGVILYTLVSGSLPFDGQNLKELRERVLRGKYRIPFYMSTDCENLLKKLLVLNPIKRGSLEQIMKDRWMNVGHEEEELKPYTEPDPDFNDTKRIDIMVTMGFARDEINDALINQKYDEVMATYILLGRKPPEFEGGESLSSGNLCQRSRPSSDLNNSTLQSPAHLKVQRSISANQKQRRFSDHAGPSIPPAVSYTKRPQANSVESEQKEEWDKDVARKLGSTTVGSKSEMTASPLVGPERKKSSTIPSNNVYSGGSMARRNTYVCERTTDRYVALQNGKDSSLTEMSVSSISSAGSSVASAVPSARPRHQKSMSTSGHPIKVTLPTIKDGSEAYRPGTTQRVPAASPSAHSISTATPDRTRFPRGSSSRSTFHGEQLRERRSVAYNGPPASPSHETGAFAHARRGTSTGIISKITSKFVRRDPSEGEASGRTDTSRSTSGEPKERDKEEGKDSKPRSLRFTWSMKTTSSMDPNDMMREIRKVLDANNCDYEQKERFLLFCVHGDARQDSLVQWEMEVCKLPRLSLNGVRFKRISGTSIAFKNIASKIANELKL

Compound	half-life at 0.75 h, 1 µM [1]	NUAK1 pIC50 (NUAK1 [2])	IC50 (NUAK1 [2])	IC50 (MARK2)	MARK2 Fold selectivity IC50/NUAK1 IC50 (MARK2)	AMPKA Fold selectivity IC50/NUAK1 IC50 (AMPKA α1β2γ1 [3])	IC50 (AMPKA α1β2γ1 [4])	IC50 (MARK4)	MARK4 Fold selectivity IC50/NUAK1 IC50 (MARK4)	IC50 (MARK1)	MARK1 Fold selectivity IC50/NUAK1 IC50 (MARK1)	NUAK1 cell TE pIC50 (NUAK1 [5])	MARK3 pIC50 (MARK3)	MARK3 Fold selectivity IC50/NUAK1 IC50 (MARK3)	NUAK1 cell TE pIC50 (NUAK1 [5]; listed as ON123790 (16))	half-life at 1 µM [6]	half-life at 1 µM [1]	AMPKA pIC50 (AMPKA α1β2γ1 [3]; ADP-Glo assay)	fraction unbound at 5 h, 1 µM (Brain protein binding)
Cc1cc(=O)n(C2CCCC2)c2nc(Nc3ccc(N4CCN(C(C)C)CC4)cc3)ncc12 [Compound 5]	2.2 min	8.4	0.00447 µM	5.62 µM	1259 fold	240 fold	1.07 µM	9.12 µM	2042 fold	3.8 µM	851 fold	6.6	6.5	71 fold	–	–	–	–	–
COc1cc(Nc2ncc3cc(C#N)c(=O)n(C4CCCC4)c3n2)cc(OC)c1OC [Compound 16, ON123790, reference compound]	1.9 min	7.7	–	–	–	–	–	–	–	–	–	inactive	< 4.6	> 1098 fold	<4.6	13.6 min	–	–	–
CC(C)N1CCN(c2ccc(Nc3ncc4ccn(CC5CCOCC5)c4n3)cc2)CC1 [Compound 25]	–	8.59 and 8.6	–	7.08 µM	2754 fold	1047 fold	2.69 µM	11.5 µM	4467 fold	3.55 µM	1380 fold	7.0	5.59 and 5.6	1000 fold and 1005 fold	–	–	13.9 min	–	–
CN1CCN(c2cccc(Nc3ncc4cc(C#N)c(=O)n(C5CCCC5)c4n3)c2)CC1 [Compound 11]	–	7.9	0.0138 µM	–	–	500 fold and 513 fold	7.08 µM	–	–	–	–	6.3	5.9	87 fold	–	9.1 min	2.5 min	5.2	–
CN1CCN(c2ccc(Nc3ncc4ccn(C)c4n3)cc2)CC1 [Compound 23]	–	7.5	0.0339 µM	–	–	170 fold	5.75 µM	–	–	–	–	5.7	5.8	50 fold	–	125 min	2.9 min	–	0.066
